Assay results: patent US9802960B2 (MILLENNIUM PHARMACEUTICALS, INC., priority 2014, dated 2017)

Biological target: Human VPS34 (Homo sapiens (Human), UniProt Q8NEB9)
Assay: Human VPS34 enzyme assay (Adapta TR-FRET)
Assay type: biochemical
Details: compound concentration 1.11 μM

Human VPS34, sequence (Q8NEB9 whole entry): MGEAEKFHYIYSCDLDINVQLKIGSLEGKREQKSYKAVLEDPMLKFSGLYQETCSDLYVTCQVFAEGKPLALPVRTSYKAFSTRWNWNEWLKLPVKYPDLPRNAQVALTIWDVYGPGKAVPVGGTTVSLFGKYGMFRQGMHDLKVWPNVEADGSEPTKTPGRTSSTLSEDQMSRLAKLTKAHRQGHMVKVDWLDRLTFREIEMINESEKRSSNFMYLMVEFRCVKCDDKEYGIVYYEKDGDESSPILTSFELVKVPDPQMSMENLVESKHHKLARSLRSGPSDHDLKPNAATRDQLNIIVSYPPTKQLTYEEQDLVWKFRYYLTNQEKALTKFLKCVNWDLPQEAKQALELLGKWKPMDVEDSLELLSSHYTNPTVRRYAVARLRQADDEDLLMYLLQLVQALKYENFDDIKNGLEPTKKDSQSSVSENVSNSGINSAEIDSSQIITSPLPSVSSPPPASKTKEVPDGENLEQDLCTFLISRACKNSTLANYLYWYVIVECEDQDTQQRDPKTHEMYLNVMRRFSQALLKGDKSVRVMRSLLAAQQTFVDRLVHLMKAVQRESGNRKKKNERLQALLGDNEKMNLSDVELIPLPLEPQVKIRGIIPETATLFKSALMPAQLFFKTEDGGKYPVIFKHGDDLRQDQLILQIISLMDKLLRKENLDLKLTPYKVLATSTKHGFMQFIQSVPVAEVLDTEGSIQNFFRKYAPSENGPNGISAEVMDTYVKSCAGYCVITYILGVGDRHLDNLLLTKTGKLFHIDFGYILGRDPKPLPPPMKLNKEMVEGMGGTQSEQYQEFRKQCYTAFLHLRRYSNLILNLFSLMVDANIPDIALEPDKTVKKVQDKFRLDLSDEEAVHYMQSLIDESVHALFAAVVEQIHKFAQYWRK

SMILES | Percent Inhibition [%]
CC(=O)Nc1cc(-c2cnc(C)c(NS(=O)(=O)N3CC4CCC3C4)c2)ccn1 (stereo not shown) [Compound I-445, N-{5-[(2-azabicyclo[2.2.1]hept-2-ylsulfonyl)amino]-6-methyl-3,4′-bipyridin-2′-yl}acetamide] | >99

Same assay, conditions: compound concentration 1.11 μM; read-out: Percent Inhibition

SMILES | inhibition at 1.11 µM [%]
CC(=O)Nc1cc(-c2cnc(C)c(S(=O)(=O)NC34CC(C3)C4)c2)ccn1 [Compound I-418, N-[5-(bicyclo[1.1.1]pent-1-ylsulfamoyl)-6-methyl-3,4′-bipyridin-2′-yl]acetamide] | > 99
CC(=O)Nc1cc(-c2cncc(NC(=O)c3ccc(F)cc3F)c2)ccn1 [Compound I-419, N-(2′-acetamido-3,4′-bipyridin-5-yl)-2,4-difluorobenzamide] | 56
CC(=O)Nc1cc(-c2cnc3c(c2)S(=O)(=O)N[C@H](c2ccccc2)CO3)ccn1 [Compound I-420, (R)-N-(4-(1,1-dioxido-3-phenyl-3,4-dihydro-2H-pyrido[2,3-b][1,4,5]oxathiazepin-8-yl)pyridin-2-yl)acetamide] | 59
Cc1nccc(Nc2cc(-c3cncc(C(C)Oc4ccccc4F)c3)ccn2)n1 (stereo not shown) [Compound I-422, 5-[1-(2-fluorophenoxy)ethyl]-N-(2-methylpyrimidin-4-yl)-3,4′-bipyridin-2′-amine] | 96
COc1ncc(-c2ccnc(NC(C)=O)c2)cc1C(=O)N(C)c1ccc(F)cc1F [Compound I-423, 2′-acetamido-N-(2,4-difluorophenyl)-6-methoxy-N-methyl-3,4′-bipyridine-5-carboxamide] | > 99
Cc1nccc(Nc2cc(-c3cnc(C)c(OCCO)c3)ccn2)n1 [Compound I-424, 2-({6-methyl-2′-[(2-methylpyrimidin-4-yl)amino]-3,4′-bipyridin-5-yl}oxy)ethanol] | > 99
CC(=O)Nc1cc(-c2cnc(Cl)c(N3CCCS3(=O)=O)c2C)ccn1 [Compound I-425, N-[6-chloro-5-(1,1-dioxidoisothiazolidin-2-yl)-4-methyl-3,4′-bipyridin-2′-yl]acetamide] | 100
COc1ncc(-c2ccnc(NC(C)=O)c2)cc1S(=O)(=O)NC1CCC1 [Compound I-426, N-[5-(cyclobutylsulfamoyl)-6-methoxy-3,4′-bipyridin-2′-yl]acetamide] | > 99
CN(C)S(=O)(=O)Nc1cc(-c2ccnc(Nc3ccnc(C4CC4)n3)c2)cn2nccc12 [Compound I-427, N′-(6-{2-[(2-cyclopropylpyrimidin-4-yl)amino]pyridin-4-yl}pyrazolo[1,5-a]pyridin-4yl)-N,N-dimethylsulfuric diamide] | > 99
CC(=O)Nc1cc(-c2cc(OS(=O)(=O)N(C)C)c3ccnn3c2)ccn1 [Compound I-428, 6-(2-acetamidopyridin-4-yl)pyrazolo[1,5-a]pyridin-4-yl dimethylsulfamate] | > 99
CC(=O)Nc1cc(-c2cnc(Cl)c(NS(=O)(=O)c3ccc(C#N)cc3)c2C)ccn1 [Compound I-429, N-(6-chloro-5-{[(4-cyanophenyl)sulfonyl]amino}-4-methyl-3,4′-bipyridin-2′-yl)acetamide] | 96
Cc1cnc(NC(=O)C2CC2)cc1-c1cnc(Cl)c(NS(=O)(=O)c2ccc(F)cc2F)c1C [Compound I-430, N-(6-chloro-5-{[(2,4-difluorophenyl)sulfonyl]amino}-4,5′-dimethyl-3,4′-bipyridin-2′-yl)cyclopropanecarboxamide] | 92
CC(=O)Nc1cc(-c2cnc(C)c(C(=O)Nc3ccc(F)cc3F)c2)ccn1 [Compound I-431, 2′-acetamido-N-(2,4-difluorophenyl)-6-methyl-3,4′-bipyridine-5-carboxamide] | 74
COc1ncc(-c2ccnc(NC(C)=O)c2)cc1S(=O)(=O)Nc1cc(Cl)ccc1Cl [Compound I-432, N-{5-[(2,5-dichlorophenyl)sulfamoyl]-6-methoxy-3,4′-bipyridin-2′-yl}acetamide] | 98
Cc1ncc(-c2ccnc(NC(=O)C3CC3)c2)cc1NS(=O)(=O)c1ccc(Cl)cc1F [Compound I-433, N-(5-{[(4-chloro-2-fluorophenyl)sulfonyl]amino}-6-methyl-3,4′-bipyridin-2′-yl)cyclopropanecarboxamide] | 93
CC(=O)Nc1cc(-c2cnc(Cl)c(C(=O)N3CCC3)c2)c(C)cn1 [Compound I-434] | 36
Cc1c(-c2ccnc(Nc3ccnc(C4CC4)n3)c2)cnc(Cl)c1NS(=O)(=O)N(C)C [Compound I-435, N′-{6-chloro-2′-[(2-cyclopropylpyrimidin-4-yl)amino]-4-methyl-3,4′-bipyridin-5-yl}-N,N-dimethylsulfuric diamide] | 96
CNc1ncc(-c2ccnc(NC(C)=O)c2)c(C)c1S(=O)(=O)NC(C)(C)C [Compound I-436, N-[5-(tert-butylsulfamoyl)-4-methyl-6-(methylamino)-3,4′-bipyridin-2′-yl]acetamide] | 89
CC(=O)Nc1cc(-c2cnc(Cl)c(NS(=O)(=O)c3cccc4ncccc34)c2C)ccn1 [Compound I-437, N-{6-chloro-4-methyl-5-[(quinolin-5-ylsulfonyl)amino]-3,4′-bipyridin-2′-yl}acetamide] | > 99
CC(=O)Nc1cc(-c2cnc(Cl)c(S(=O)(=O)NC3CCC3)c2)ccn1 [Compound I-438, N-[6-chloro-5-(cyclobutylsulfamoyl)-3,4′-bipyridin-2′-yl]acetamide] | > 99
Cc1nccc(Nc2cc(-c3cnc(C)c(NC(=O)Nc4ccccc4)c3)ccn2)n1 [Compound I-439, 1-{6-methyl-2′-[(2-methylpyrimidin-4-yl)amino]-3,4′-bipyridin-5-yl}-3-phenylurea] | 69
Cc1nccc(Nc2cc(-c3cncc(OC4CCc5c(F)cccc54)c3)ccn2)n1 (stereo not shown) [Compound I-440, 5-[(4-fluoro-2,3-dihydro-1H-inden-1-yl)oxy]-N-(2-methylpyrimidin-4-yl)-3,4′-bipyridin-2′-amine] | 83
Cc1ncc(-c2ccnc(NC(=O)C3CC3(F)F)c2)cc1NS(=O)(=O)c1ccc(Cl)cc1F (stereo not shown) [Compound I-441, N-(5-{[(4-chloro-2-fluorophenyl)sulfonyl]amino}-6-methyl-3,4′-bipyridin-2′-yl)-2,2-difluorocyclopropanecarboxamide] | > 99
COc1ncc(-c2ccnc(NC(C)=O)c2)c(C)c1S(=O)(=O)NC(C)(C)C [Compound I-442, N-[5-(tert-butylsulfamoyl)-6-methoxy-4-methyl-3,4′-bipyridin-2′-yl]acetamide] | > 99
CC(=O)Nc1cc(-c2cncc(S(=O)(=O)NC(C)(C)C)c2)ccn1 [Compound I-443, N-[5-(tert-butylsulfamoyl)-3,4′-bipyridin-2′-yl]acetamide] | > 99
CC(=O)Nc1cc(-c2cnc(Cl)c(NS(=O)(=O)c3ccc(Br)cc3F)c2C)ccn1 [Compound I-444, N-(5-{[(4-bromo-2-fluorophenyl)sulfonyl]amino}-6-chloro-4-methyl-3,4′-bipyridin-2′-yl)acetamide] | > 99
Cc1nccc(Nc2cc(-c3cnc(C)c(OC(C)C)c3)ccn2)n1 [Compound I-446, 5-isopropoxy-6-methyl-N-(2-methylpyrimidin-4-yl)-3,4′-bipyridin-2′-amine] | > 99
